Results on five molecules are retold here after article PMC3857490, “Discovery of a metabolic alternative to the classical mevalonate pathway” (eLife, 2013).

Holding throughout (assay): pyruvate kinase-lactate dehydrogenase coupled assay
In one series the target is T1, PMK from S. solfataricus (Saccharolobus solfataricus, UniProt Q97UL6).
T1 construct: gene SSO2988; full length, N-terminal thrombin-cleavable 8-His tag (pET28a), E. coli BL21(DE3)
T1 sequence (Q97UL6 1-323): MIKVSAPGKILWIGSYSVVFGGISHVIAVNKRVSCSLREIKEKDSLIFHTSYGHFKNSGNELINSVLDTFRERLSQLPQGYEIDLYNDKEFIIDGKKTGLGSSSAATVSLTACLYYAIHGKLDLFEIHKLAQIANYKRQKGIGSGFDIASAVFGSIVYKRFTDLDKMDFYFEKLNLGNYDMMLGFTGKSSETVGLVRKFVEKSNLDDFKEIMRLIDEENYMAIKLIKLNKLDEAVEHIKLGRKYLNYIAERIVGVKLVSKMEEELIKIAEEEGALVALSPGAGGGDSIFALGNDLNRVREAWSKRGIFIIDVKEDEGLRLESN
The series is classed as biochemical. As to conditions: co-substrate ATP; Ki from the fit of the substrate's own saturation curve (substrate inhibition); racemic (RS)-MVAP. From the text:
(§1) pyruvate kinase-lactate dehydrogenase coupled assay on PMK from S. solfataricus

In a further series the target is T2, MDD from A. thaliana (Arabidopsis thaliana, UniProt O23722).
T2 construct: gene MVD1; synthetic gene, thrombin-cleavable 9-His tag (pHIS9GW), E. coli BL21(DE3)
T2 sequence (O23722 1-412): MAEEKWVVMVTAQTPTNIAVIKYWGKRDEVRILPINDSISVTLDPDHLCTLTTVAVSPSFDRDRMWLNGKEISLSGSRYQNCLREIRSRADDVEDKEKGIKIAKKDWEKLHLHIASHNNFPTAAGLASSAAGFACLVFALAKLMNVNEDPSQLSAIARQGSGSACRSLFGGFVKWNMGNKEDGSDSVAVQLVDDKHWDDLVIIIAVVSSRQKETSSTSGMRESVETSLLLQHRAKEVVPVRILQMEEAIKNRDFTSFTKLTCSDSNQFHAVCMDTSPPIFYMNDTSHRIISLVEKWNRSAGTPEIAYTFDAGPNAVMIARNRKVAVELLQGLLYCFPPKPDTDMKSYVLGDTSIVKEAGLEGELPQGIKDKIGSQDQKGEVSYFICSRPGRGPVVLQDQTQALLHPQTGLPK
The series is classed as biochemical. Conditions: co-substrate ATP; racemic (RS)-MVAPP. From the text: pyruvate kinase-lactate dehydrogenase coupled assay on MDD from A. thaliana

In series [1] the target is T3, IPK from B. floridae (Branchiostoma floridae, UniProt A0A9J7KY69).
T3 construct: gene LOC118413305
T3 sequence (A0A9J7KY69 1-298): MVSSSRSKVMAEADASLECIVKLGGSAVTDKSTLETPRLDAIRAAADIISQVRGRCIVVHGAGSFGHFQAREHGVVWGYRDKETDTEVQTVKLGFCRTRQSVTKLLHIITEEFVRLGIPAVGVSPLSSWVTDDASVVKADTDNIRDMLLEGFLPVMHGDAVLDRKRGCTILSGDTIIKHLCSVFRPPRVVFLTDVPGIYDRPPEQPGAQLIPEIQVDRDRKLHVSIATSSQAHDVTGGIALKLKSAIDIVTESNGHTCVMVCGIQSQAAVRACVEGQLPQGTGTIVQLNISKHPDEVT
The class given is biochemical. As to conditions: co-substrate ATP; fit with substrate inhibition.

The next series deals with T4, IPK from T. adhaerens (Trichoplax adhaerens, UniProt B3RKZ8).
T4 construct: gene TRIADDRAFT_51825
T4 sequence (B3RKZ8 1-281): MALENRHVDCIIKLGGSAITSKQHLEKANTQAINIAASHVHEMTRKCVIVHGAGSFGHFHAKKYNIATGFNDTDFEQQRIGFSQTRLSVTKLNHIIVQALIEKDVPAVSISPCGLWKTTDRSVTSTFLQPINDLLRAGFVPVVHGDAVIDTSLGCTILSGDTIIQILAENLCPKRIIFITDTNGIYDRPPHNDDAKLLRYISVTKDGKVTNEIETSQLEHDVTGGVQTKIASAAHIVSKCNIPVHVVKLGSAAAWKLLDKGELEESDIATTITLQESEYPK
The series is classed as biochemical. Conditions: co-substrate ATP; four IP concentrations, 2-100 µM.

Series [2] deals with T3, IPK from B. floridae. The class given is biochemical. Conditions: co-substrate ATP; Ki from the fit of the substrate's own saturation curve (substrate inhibition). From the text:
pyruvate kinase-lactate dehydrogenase coupled assay on IPK from B. floridae

The next series deals with T5, IPK from A. thaliana (Arabidopsis thaliana, UniProt Q8H1F7).
T5 construct: synthetic gene, thrombin-cleavable 9-His tag (pHIS9GW), E. coli BL21(DE3)
T5 sequence (Q8H1F7 1-332): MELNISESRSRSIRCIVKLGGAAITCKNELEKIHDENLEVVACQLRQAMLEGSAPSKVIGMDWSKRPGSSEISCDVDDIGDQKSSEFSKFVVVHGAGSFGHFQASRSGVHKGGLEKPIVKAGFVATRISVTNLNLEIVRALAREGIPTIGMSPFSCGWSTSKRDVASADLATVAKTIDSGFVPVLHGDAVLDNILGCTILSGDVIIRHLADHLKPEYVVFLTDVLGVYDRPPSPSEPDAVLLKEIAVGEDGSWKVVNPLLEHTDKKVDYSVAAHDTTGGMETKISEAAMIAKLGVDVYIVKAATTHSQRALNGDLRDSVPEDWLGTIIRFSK
The class given is biochemical. As to conditions: co-substrate ATP; Ki from the fit of the substrate's own saturation curve (substrate inhibition); four IP concentrations, 2-100 µM.

Substrate in series [3]: CC(O)(CCOP(=O)(O)O)CC(=O)O
The class given is biochemical, Roseiflexus castenholzii. As to conditions: co-substrate ATP, racemic (RS)-MVAP, below the organism's growth temperature (50 C and above). From the text:
pyruvate kinase-lactate dehydrogenase coupled assay on MPD from R. castenholzii (annotated MDD)

Substrate in series [4]: CC(O)(CCOP(=O)(O)O)CC(=O)O
The class given is biochemical, Saccharolobus solfataricus. Conditions: co-substrate ATP; racemic (RS)-MVAP; fit with substrate inhibition.
Description: as §1

For `CC(O)(CCOP(=O)(O)O)CC(=O)O` (racemic) [compound 3, phosphomevalonate], on PMK from S. solfataricus, the “Ki (μM)” value was 5500 (± 2200) μM.
With `CC(O)(CCOP(=O)(O)OP(=O)(O)O)CC(=O)O` (racemic) [compound 5, diphosphomevalonate], the Km on MDD from A. thaliana stood at 15.7 µM.
With `C=C(C)CCOP(=O)(O)O` [compound 4, isopentenyl phosphate], the Km at IPK from B. floridae [1] was 13.3 µM; at IPK from T. adhaerens it was 3.1 µM. Also, the “Ki (μM)” value on IPK from B. floridae [2] was 2820 (± 1700) μM; on IPK from A. thaliana, 522 (± 381) μM.

B1: MPD from R. castenholzii (annotated MDD) (Roseiflexus castenholzii DSM 13941) (protein)
chain: MYHRPLERMPGLATAIPAPYADLVERMATADADLRAALRAHGLTWEEYPDLTGAARERGAAAALAYPMQGVLKYHGLSDWDYRIAFLPSVSLCNDAGHTLTLVEFDPDLATDCATINGHVARGRELERVRQSLDAIRAASGATVRARVMSRNVTRGTRMGKGLGSSAAASAALALAAIAALYGDEAAANRRLVSCMARLLAGSGCRSAAGGCSIWFSSPGMPHEDSFAVRLDDAGQLDDVRLITVPLDSRIGLKTEQAHLDAPGSALFRCWMLSRRDEALACIAAARTGDWRTLGQWAELDSMRLHGITMSGSLENKLIGWEPENIVLFRMCNDLRSSGVPVYCSTDTGPTAVFITHRDYEDAVVSAIEGLGLSLEAIRGRVAGPARLVDIAWAGGELGVAD
notes: synthetic gene, 9-His tag removed with thrombin, E. coli BL21(DE3), Mono Q and Superdex 200
In general, kcat refers to the maximal rate divided by the concentration of active sites. Usually kcat/Km stands for the second-order rate constant that governs catalysis at low substrate concentration. As to B1, in series [3], the Km is given as 152 (± 38) μM, the kcat was 1.7 ± 0.1 s⁻¹ and the kcat/Km was 11000 ± 3000 M⁻¹ s⁻¹.

B2: PMK from S. solfataricus (Saccharolobus solfataricus P2) (protein)
chain: MIKVSAPGKILWIGSYSVVFGGISHVIAVNKRVSCSLREIKEKDSLIFHTSYGHFKNSGNELINSVLDTFRERLSQLPQGYEIDLYNDKEFIIDGKKTGLGSSSAATVSLTACLYYAIHGKLDLFEIHKLAQIANYKRQKGIGSGFDIASAVFGSIVYKRFTDLDKMDFYFEKLNLGNYDMMLGFTGKSSETVGLVRKFVEKSNLDDFKEIMRLIDEENYMAIKLIKLNKLDEAVEHIKLGRKYLNYIAERIVGVKLVSKMEEELIKIAEEEGALVALSPGAGGGDSIFALGNDLNRVREAWSKRGIFIIDVKEDEGLRLESN
notes: full length, N-terminal thrombin-cleavable 8-His tag (pET28a), E. coli BL21(DE3)
Take B2: in series [4], the Km was 23.1 (± 3.8) μM, the kcat was found to be 1.98 ± 0.1 s⁻¹ and the specificity constant (kcat/Km) stood at 90000 ± 10000 M⁻¹ s⁻¹.
